Assay [1] deals with T1, human jejunal NK-2 receptor (Homo sapiens, UniProt P21452).
T1 construct: expressed in transfected cells; host or cells: HSKR-1 (mouse 3T3 fibroblasts)
T1 sequence (P21452 1-398): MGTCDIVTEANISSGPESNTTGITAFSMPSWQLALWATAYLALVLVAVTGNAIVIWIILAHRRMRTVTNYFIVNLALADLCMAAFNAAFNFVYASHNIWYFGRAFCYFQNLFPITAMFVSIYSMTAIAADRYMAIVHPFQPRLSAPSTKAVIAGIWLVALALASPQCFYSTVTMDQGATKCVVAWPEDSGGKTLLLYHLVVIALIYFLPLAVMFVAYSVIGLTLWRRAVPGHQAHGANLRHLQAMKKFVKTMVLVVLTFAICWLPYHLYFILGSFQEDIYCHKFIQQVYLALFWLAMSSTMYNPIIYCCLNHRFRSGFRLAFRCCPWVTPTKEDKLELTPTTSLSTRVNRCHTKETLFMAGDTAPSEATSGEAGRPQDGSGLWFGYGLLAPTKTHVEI
As to the kind of experiment: NK-2 receptor binding (125I-neurokinin A) in HSKR-1 cell membranes. The conditions noted are these: HSKR-1 cells (mouse 3T3 fibroblasts expressing human jejunal NK-2 receptor); 0.1 nM 125I-iodohistidyl-1-neurokinin A; mean ± S.E.M. As for the experimental part: (§1) Receptor binding assays were performed in crude tissue membranes. The NK-1 receptor binding affinity of proposed tachykinin antagonists was evaluated in guinea pig lungs (Keystone Biologicals, Cleveland, OH, kept frozen at -80° C. until use). Affinity for the NK-2 receptor was evaluated in HSKR-1 cells which are mouse 3T3 fibroblasts expressing the human jejunal NK-2 receptor. Tissues or cells were homogenized with a Polytron in 15 volumes of 50 mM Tris-HCl buffer (pH 7.4, 4° C.) containing 120 mM NaCl and 5 mM KCl and centrifuged at 48,000×g for 12 min. at 4° C. The pellet was resuspended in 15 volumes of 50 mM Tris-HCl buffer containing 10 mM EDTA and 300 mM KCl then set on ice for 30 min. The suspension was cetrifuged as above and the pellet washed by resuspension and cetrifugation two additional times in 50 mM Tris-HCl buffer (pH 7.4, 4° C.). The final pellet was resuspended in a concentration of 20 mg/ml in incubation buffer then kept at room temperature for at least 15 min prior to use. Receptor binding was initiated by addition of 250 μl membrane preparation (final protein concentration; lungs=286 μg/tube, HSKR-1 cells=100 μg/tube) in duplicate to 0.1 nM of the following radioligands: for NK-1 receptor assays, ^125 I-Bolton-Hunter Lys-3 labeled substance P (New England Nuclear, specific activity, 2200 Ci/mmol); for NK-2 receptor assays, ^125 iodohistidyl-1-neurokinin A (Amersham, specific activity, 2000 Ci/mmol) in a final volume of 500 μl of buffer containing 50 mM Tris-HCl (pH 7.4 at room temperature), 0.1% bovine serum albumin, 2 mM MnCl2, 40 μg/ml bacitracin, 4 μg/ml leupeptin and chymostatin, 1 μM thiorphan and various doses of the tachykinin antagonists. Incubations were performed at room temperature for 90 min (NK-1 receptor assays) or 2 hr (NK-2 receptor assays); binding was terminated by addition of 50 mM Tris-HCl buffer (pH 7.4, 4° C.) and filtration under vacuum through GF/B filters presoaked with 0.1% polyethyleneimine (NK-1 receptor assays) or 0.5% bovine serum albumin (NK-2 receptor assays). Nonspecific binding was defined as binding in the presence of 1 μM substance P (NK-1 receptor assays) or neurokinin A (NK-2 receptor assays) (Peptides International, Inc., Louisville, Ky.). Specific binding was calculated by subtracting nonspecific binding from total binding and corresponded to 70-90% of total binding. Data were analyzed and IC50 values generated by nonlinear regression using an iterative curve fitting program (GraphPAD Inplot, San Diego, Calif.). Protein was determined by the method of Lowry.

The target of assay [2] is T2, NK-1 receptor (Cavia porcellus, UniProt P30547).
T2 construct: tissue Keystone Biologicals, Cleveland, OH; host or cells: guinea pig lung
As to the kind of experiment: NK-1 receptor binding (125I-Bolton-Hunter substance P) in guinea pig lung membranes. Particulars: 0.1 nM 125I-Bolton-Hunter Lys-3 substance P, mean ± S.E.M. As for the experimental part: as §1

Each structure is given as a SMILES string. Where a SMILES comes first, the peptide text is derived from it. [ ]: non-standard residue; d: D form. Phe(4-NO2) = N[C@@H](Cc1ccc([N+](=O)[O-])cc1)C(=O)O; Phe(4-Cl) = N[C@@H](Cc1ccc(Cl)cc1)C(=O)O; Phe(4-NH2) = Nc1ccc(C[C@H](N)C(=O)O)cc1

By IC50 is commonly meant the midpoint of a concentration-inhibition curve. The low end stands for greater potency, the high end for weaker potency.

T2 sequence (P30547 whole entry): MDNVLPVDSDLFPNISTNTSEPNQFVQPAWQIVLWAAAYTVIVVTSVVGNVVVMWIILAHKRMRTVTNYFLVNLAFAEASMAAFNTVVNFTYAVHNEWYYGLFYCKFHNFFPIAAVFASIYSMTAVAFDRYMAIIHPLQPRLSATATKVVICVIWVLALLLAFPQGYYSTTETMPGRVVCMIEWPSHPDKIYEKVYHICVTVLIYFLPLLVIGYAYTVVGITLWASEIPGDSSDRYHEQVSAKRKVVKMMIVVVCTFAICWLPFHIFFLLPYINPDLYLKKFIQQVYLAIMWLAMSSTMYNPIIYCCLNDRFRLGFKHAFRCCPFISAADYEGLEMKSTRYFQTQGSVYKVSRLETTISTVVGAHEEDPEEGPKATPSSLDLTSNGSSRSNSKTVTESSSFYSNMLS

As for `CC(C)C[C@@H]1NC(=O)[C@H](Cc2c[nH]c3ccccc23)NC(=O)[C@H](Cc2ccc(O)cc2)NC(=O)CNC(=O)[C@H](Cc2c[nH]c3ccccc23)NC(=O)[C@H](CCCNC(=N)N)NC1=O` [cyclo[Tyr--Trp--Leu--Arg--Trp--Gly]] (cyclo(GYWLRW)), the IC50 in assay [1] came to 305 ± 31 nM; in assay [2], 10000 nM.

`CC(C)C[C@@H]1NC(=O)[C@@H](Cc2c[nH]c3ccccc23)NC(=O)[C@H](Cc2ccc(O)cc2)NC(=O)CNC(=O)[C@H](Cc2ccc([N+](=O)[O-])cc2)NC(=O)[C@H](CCCNC(=N)N)NC1=O` [cyclo[Tyr-trp-Leu-Arg-(p-NO2 -Phe)-Gly]] (cyclo(GY[dW]LR[Phe(4-NO2)])): the values for the IC50 in assay [1] and in assay [2] were 11.7 ± 0.44 nM and above 10000 nM, respectively.

As for `CC(C)C[C@@H]1NC(=O)[C@@H](Cc2c[nH]c3ccccc23)NC(=O)[C@H](Cc2c[nH]c3ccccc23)NC(=O)CNC(=O)[C@H](Cc2c[nH]c3ccccc23)NC(=O)[C@H](CCCNC(=N)N)NC1=O` [cyclo[Trp--trp--Leu--Arg--Trp--Gly], cyclo[Trp-trp-Leu-Arg-Trp-Gly]] (cyclo(GW[dW]LRW)), the results for the concentration for half-maximal inhibition (IC50) in assay [1] and in assay [2] were 4.7 ± 0.15 nM and 4830 ± 297 nM, respectively.

For `CC(C)C[C@@H]1NC(=O)[C@@H](Cc2c[nH]c3ccccc23)NC(=O)[C@H](Cc2ccc(O)cc2)NC(=O)CNC(=O)[C@H](Cc2ccc(N)cc2)NC(=O)[C@H](CCCNC(=N)N)NC1=O` [cyclo[Tyr-trp-Leu-Arg-(p-NH2 -Phe)-Gly]] (cyclo(GY[dW]LR[Phe(4-NH2)])), the half-maximal inhibitory concentration (IC50) was 20.2 ± 2.03 nM in assay [1] and above 10000 nM in assay [2].

`CC(C)C[C@@H]1NC(=O)[C@@H](Cc2c[nH]c3ccccc23)NC(=O)[C@H](Cc2ccc(O)cc2)NC(=O)[C@H](C)NC(=O)[C@H](Cc2ccc(O)cc2)NC(=O)[C@H](CCCNC(=N)N)NC1=O` [cyclo[Tyr--trp--Leu--Arg--Tyr--Ala], cyclo[Tyr-trp-Leu-Arg-Tyr-Ala]] (cyclo(AY[dW]LRY)) had an IC50 in assay [1] of 206 ± 15 nM.

In assay [1], `CC(C)C[C@@H]1NC(=O)[C@@H](Cc2c[nH]c3ccccc23)NC(=O)[C@H](Cc2ccc(O)cc2)NC(=O)[C@H](Cc2c[nH]c3ccccc23)NC(=O)CNC(=O)[C@H](CCCNC(=N)N)NC1=O` [cyclo[Tyr--trp--Leu--Arg--Gly--Trp], cyclo[Tyr-trp-Leu-Arg-Gly-Trp]] (cyclo(GWY[dW]LR)) came in with an IC50 of 360 ± 21 nM.

On to `CC(C)C[C@@H]1NC(=O)[C@@H](Cc2c[nH]c3ccccc23)NC(=O)[C@H](Cc2ccc(O)cc2)NC(=O)CNC(=O)[C@@H](Cc2c[nH]c3ccccc23)NC(=O)[C@H](CCCNC(=N)N)NC1=O` [cyclo[Tyr--trp--Leu--Arg--trp--Gly]] (cyclo(GY[dW]LR[dW])), for which the IC50 was 193 ± 11.5 nM in assay [1] and above 10000 nM in assay [2].

In turn, `CC(C)C[C@@H]1NC(=O)[C@@H](Cc2c[nH]c3ccccc23)NC(=O)[C@H](Cc2ccc(O)cc2)NC(=O)[C@H](C)NC(=O)[C@H](Cc2c[nH]c3ccccc23)NC(=O)[C@H](CCCNC(=N)N)NC1=O` [cyclo[Tyr--trp--Leu--Arg--Trp--Ala], cyclo[Tyr-trp-Leu-Arg-Trp-Ala]] (cyclo(AY[dW]LRW)) yielded an IC50 in assay [1] of 9.9 ± 0.9 nM.

Molecule `CC(C)C[C@@H]1NC(=O)[C@@H](Cc2c[nH]c3ccccc23)NC(=O)[C@H](Cc2ccc(O)cc2)NC(=O)[C@@H](C)NC(=O)[C@H](Cc2c[nH]c3ccccc23)NC(=O)[C@H](CCCNC(=N)N)NC1=O` [cyclo[Tyr--trp--Leu--Arg--Trp--ala]] (cyclo(LRW[dA]Y[dW])) yielded an IC50 in assay [1] of 7.99 ± 1.02 nM.

`C[C@@H]1NC(=O)[C@@H](Cc2c[nH]c3ccccc23)NC(=O)[C@H](Cc2ccc(O)cc2)NC(=O)CNC(=O)[C@H](Cc2c[nH]c3ccccc23)NC(=O)[C@H](CCCNC(=N)N)NC1=O` [cyclo[Tyr--trp--Ala--Arg--Trp--Gly], cyclo[Tyr-trp-Ala-Arg-Trp-Gly]] (cyclo(ARWGY[dW])): the IC50 in assay [1] turned out to be 56.7 ± 5.45 nM.

Molecule `CC(C)C[C@@H]1NC(=O)[C@H](CCC(N)=O)NC(=O)[C@@H](Cc2ccc(O)cc2)NC(=O)CNC(=O)[C@H](Cc2c[nH]c3ccccc23)NC(=O)[C@H](CCCNC(=N)N)NC1=O` [cyclo[tyr--Gln--Leu--Arg--Trp--Gly], cyclo[tyr-Gln-Leu-Arg-Trp-Gly]] (cyclo(G[dY]QLRW)) had an IC50 in assay [1] of 407 ± 52 nM.

On to `CC(C)C[C@@H]1NC(=O)[C@@H](Cc2c[nH]c3ccccc23)NC(=O)[C@@H](Cc2ccc(O)cc2)NC(=O)CNC(=O)[C@H](Cc2c[nH]c3ccccc23)NC(=O)[C@H](CCCNC(=N)N)NC1=O` [cyclo[tyr--trp--Leu--Arg--Trp--Gly]] (cyclo(G[dY][dW]LRW)), for which the IC50 in assay [1] was 4.97 ± 0.42 nM; in assay [2] it was above 10000 nM.

Consider `CC(C)C[C@@H]1NC(=O)[C@@H](Cc2c[nH]c3ccccc23)NC(=O)[C@H](Cc2ccc(O)cc2)NC(=O)[C@@H]2CCCN2C(=O)[C@H](Cc2c[nH]c3ccccc23)NC(=O)[C@H](CCCNC(=N)N)NC1=O` [cyclo[Tyr--trp--Leu--Arg--Trp--Pro], cyclo[Tyr-trp-Leu-Arg-Trp-Pro]] (cyclo(LRWPY[dW])), for which the concentration for half-maximal inhibition (IC50) in assay [1] is 30 ± 2.52 nM; in assay [2], 5170 ± 507 nM.

Consider `N=C(N)NCCC[C@@H]1NC(=O)[C@@H]2CCCN2C(=O)[C@@H](Cc2ccccc2)NC(=O)[C@H](Cc2ccccc2)NC(=O)CNC(=O)[C@H](Cc2ccccc2)NC1=O` [cyclo[Phe--phe--Pro--Arg--Phe--Gly], cyclo[Phe-phe-Pro-Arg-Phe-Gly]] (cyclo(FGF[dF]PR)), for which the IC50 in assay [1] is 674 ± 57 nM; in assay [2] it was 9310 ± 2070 nM.

For `CC(C)C[C@@H]1NC(=O)[C@@H](Cc2c[nH]c3ccccc23)NC(=O)[C@H](Cc2ccc(O)cc2)NC(=O)CNC(=O)[C@H](Cc2ccc(Cl)cc2)NC(=O)[C@H](CCCNC(=N)N)NC1=O` [cyclo[Tyr-trp-Leu-Arg-(p-Cl-Phe)-Gly]] (cyclo(GY[dW]LR[Phe(4-Cl)])), the IC50 is 13.3 ± 1.31 nM in assay [1] and around 10000 nM in assay [2].

Turning to `CC(C)C[C@@H]1NC(=O)[C@@H](Cc2c[nH]c3ccccc23)NC(=O)[C@H](Cc2ccc(O)cc2)NC(=O)CNC(=O)[C@H](Cc2ccc(O)cc2)NC(=O)[C@H](CCCNC(=N)N)NC1=O` [cyclo[Tyr--trp--Leu--Arg--Tyr--Gly], cyclo[Tyr-trp-Leu-Arg-Tyr-Gly]] (cyclo(GY[dW]LRY)), the figures for the concentration for half-maximal inhibition (IC50) in assay [1] and in assay [2] were 18.9 ± 1.58 nM and above 10000 nM, respectively.

In the case of `N=C(N)NCCC[C@@H]1NC(=O)[C@@H]2CCCN2C(=O)[C@@H](Cc2c[nH]c3ccccc23)NC(=O)[C@H](Cc2ccc(O)cc2)NC(=O)CNC(=O)[C@H](Cc2c[nH]c3ccccc23)NC1=O` [cyclo[Tyr--trp--Pro--Arg--Trp--Gly], cyclo[Tyr-trp-Pro-Arg-Trp-Gly]] (cyclo(GY[dW]PRW)), the half-maximal inhibitory concentration (IC50) in assay [1] is 5.13 ± 0.36 nM; in assay [2], above 10000 nM.

Molecule `CC(C)C[C@@H]1NC(=O)CNC(=O)[C@H](Cc2c[nH]c3ccccc23)NC(=O)[C@H](CCCNC(=N)N)NC(=O)[C@H](CC(C)C)NC(=O)CNC(=O)[C@H](Cc2c[nH]c3ccccc23)NC(=O)[C@H](CCCNC(=N)N)NC1=O` [cyclo[Leu-Arg-Trp-Gly-Leu-Arg-Trp-Gly]] (cyclo(GLRWGLRW)) came in with an IC50 in assay [1] of 768 ± 75 nM.
